Legend:
[1] = test system: MCF-7 cells; test: DAPI staining of nuclear changes, MCF-7; type: cell-based, human; details: MCF-7 cells, 2, 4, 8 μM, 72 h
Experimental: Morphological observation of nuclear changes was performed by DAPI staining in this assay. MCF-7 cells in the logarithmic growth phase were seeded in 12-well plates at a density of 5 × 10^3 cells/well and were allowed to grow for 24 h. Then the cells were treated with different concentration ranges of BoA2C (0, 2, 4 8 μM) for 72 h. After the treatment period, cells were washed with PBS and fixed with 4% paraformaldehyde for 10 min. Then the liquid was discarded, and the cells were stained with DAPI (1 mg/ml, Molecular Probes/Invitrogen Life Technologies, Carlsbad, CA, United States) for 1 min in dark. After staining, cells were visualized under a fluorescence microscope (Olympus IX71, Tokyo, Japan).

[2] = test system: MCF-7 cells; test: Cellular metabolomics study (LC-MS); type: cell-based, human; details: MCF-7, BoA2C (2 μM) 72 h, BoA2C and Control groups
Experimental: To eliminate excess medium, cells were washed twice with 1 ml of PBS solution. The wells were then filled with 2 ml of ACN: MeOH: H2O 50:30:20 (v/v) and placed in the freezer for 20 min. The extracts obtained in an Eppendorf tube after the cells were scraped and vortexed. The mixture was then centrifuged for 10 min at 10,000 rpm and 4°C, and the supernatant was collected and dried with an evaporator. 300 μl MeOH was used for reconstitution. 15 μL of the reconstituted extract was mixed with 15 μl H2O and […] ACN for the metabolomics analysis of the intracellular material. After centrifugation (10 min, 4°C, 11,800 g), the supernatant was transferred to an LC-MS vial for analysis.
An Acquity UPLC HSS T3 column (1.8 μm 100 × 2.1 mm) using an UltiMate 3000 high performance LC system coupled to Q Exactive MS was used for metabolic profiling ([Shu et al., 2020]). At a flow rate of 0.3 ml/min, mobile phase A (water containing 0.1% acid) and mobile phase B (methanol) were used. A was reduced from 80 % to 70% from 0 to 2 min, A was reduced to 55% from 2 to 5 min, A was reduced to 40% from 5 to 6.5 min, A was reduced to 35% from 6.5 to 12 min, A was last reduced to 0 from 12 to 18 min. The gradient of the mobile phase was as follows: The column oven temperature was set to 40°C, and the autosampler temperature was set to 4°C. The injection volume was 1 μl. MS used electron spray ionization to operate in both positive and negative ionization modes (ESI). To assess the stability and repeatability of the LC-MS-based metabolomics method, quality control (QC) samples were used. Each QC sample was made by combining five samples of the same volume (100 μL) in the order of analysis. To ensure the system method’s stable operation, all combined QC samples for running all QC samples made by every five samples before analysis. After five samples were tested during the analysis run, the combined QC samples of the five samples were taken.
Mass spectrometry data of metabolites in MCF-7 cells was used for metabolomics investigation after co-cultivation with BoA2C (2 μM) for 72 h. The effectiveness of the OPLS-DA model to distinguish between the BoA2C and Control groups was assessed using the success criterion of R^2 ≥ 0.7 and Q^2 ≥ 0.4 ([Martin-Blazquez et al., 2019]). […] VIP-plots were investigated using the OPLS-DA models to examine important factors that led to the differentiation of the metabolome between the BoA2C and Control groups. Variables having a VIP value greater than 1 were deemed significant contenders. Matching retention time and MS fragmentation patterns from the MetaboAnalyst (version 5.0) database verified the presence of distinct metabolites ([Pang et al., 2021]). These metabolites were further categorized based on their characteristics, including amino acids, amines, aliphatic acids and bile acids. All differential metabolites were loaded into MetaboAnalyst (version 5.0) for metabolic analysis to further explain the fundamental mechanisms of BoA2C’s cytotoxic impact on breast carcinoma cells. In accordance with the described guidelines, the Homo sapiens pathway library and Fisher’s exact test were used for route enrichment analysis, while relative-betweeness centrality was used for pathway topology analysis ([Pang et al., 2021]). The impacted metabolic pathways were defined as those with a pathway effect value more than 0.10 and a p value less than 0.05. […] Six of them (Figure 7B, Table 3) were primarily involved: 1) arginine and proline metabolism 2) linoleate metabolism 3) bile acid biosynthesis 4) de novo fatty acid biosynthesis 5) fatty acid activation, and (VI) fatty Acid Metabolism.

[3] = Arginine and Proline Metabolism
[4] = De novo fatty acid biosynthesis

For `C=C(C)[C@@H]1CC[C@]2(C(=O)OCCOC(=O)c3cnc(C)cn3)CC[C@]3(C)[C@H](CC[C@@H]4[C@@]5(C)CCC(=O)C(C)(C)[C@@H]5CC[C@]43C)[C@@H]12` [BoA2C, (5-Methylpyrazin-2-acyloxy)-ethyl-3-oxolup-20(29)-en-28-oate], the “nuclear morphological changes (DAPI staining)” value [1] was “nuclear morphological changes typical of apoptosis in a dose-dependent manner”, the “fold change of 4-Acetamidobutanoic acid (M4)” value [2, 3] was 2.37 and the “fold change of 5′-Methylthioadenosine (M10)” value [2, 3] was 28.55. The “fold change of L-4-Hydroxyglutamate semialdehyde (M6)” value [2, 3] was 1.99, the “fold change of L-Arginine (M14)” value [2, 3] was 1.90 and the “fold change of L-Glutamic acid (M18)” value [2, 3] was 1.94. For the same molecule, the “fold change of L-Glutamine (M7)” value [2, 3] was 2.33, the “fold change of L-Methionine (M12)” value [2, 3] was 3.63 and the “fold change of L-Proline (M5)” value [2, 3] was 2.40. The “fold change of 3,7-Dihydroxycoprostanic Acid (M21)” value ([2]; Bile acid biosynthesis) was 1027.39, the “fold change of 3a,7a-Dihydroxy-5b-cholestan-26-al (M13)” value ([2]; Bile acid biosynthesis) was 241.46 and the “fold change of 3 alpha,7 alpha,26-Trihydroxy-5beta-cholestane (M3)” value ([2]; Bile acid biosynthesis) was 362.98. The “fold change of 7a,12a-Dihydroxy-cholestene-3-one (M16)” value ([2]; Bile acid biosynthesis) was 17.04, the “fold change of 7a-Hydroxy-5b-cholestan-3-one (M25)” value ([2]; Bile acid biosynthesis) was 9.40 and the “fold change of 7a-Hydroxy-cholestene-3-one (M28)” value ([2]; Bile acid biosynthesis) was 4.47. For the same molecule, the “fold change of 7alpha-Hydroxycholesterol (M17)” value ([2]; Bile acid biosynthesis) was 92.35, the “fold change of 27-Deoxy-5b-cyprinol (M24)” value ([2]; Bile acid biosynthesis) was 2.03 and the “fold change of Cholesterol (M1)” value ([2]; Bile acid biosynthesis) was 7.69. The “fold change of Cholic acid (M2)” value ([2]; Bile acid biosynthesis) was 2.55, the “fold change of Lithocholic acid (M27)” value ([2]; Bile acid biosynthesis) was 108.49 and the “fold change of Palmitic acid (M11)” value [2, 4] was 23.17. For the same molecule, the “fold change of alpha-Linolenic acid (M26)” value [2, 4] was 2.19, the “fold change of 2-trans-dodecenoyl-CoA (M22)” value ([2]; Fatty Acid Metabolism) was 1.93 and the “fold change of 3-Oxotetradecanoyl-CoA (M15)” value ([2]; Fatty Acid Metabolism) was 1.77. The “fold change of 13-HODE (M23)” value ([2]; Linoleate metabolism) was 108.54, the “fold change of 13-Hpode (M9)” value ([2]; Linoleate metabolism) was 23.04 and the “fold change of Ascorbic Acid (M19)” value ([2]; Linoleate metabolism) was 2.88. The “fold change of Linoleic acid (M20)” value ([2]; Linoleate metabolism) was 159.58 and the “fold change of LysoPC(P-18:0/0:0) (M8)” value ([2]; Linoleate metabolism) was 3.29.

From paper PMC9486541, “Design, synthesis and cytotoxic evaluation of novel betulonic acid-diazine derivatives as potential antitumor agents” (Frontiers in Chemistry, 2022)
